Data from US20110028517A1 (LABORATORIOS DEL DR. ESTEVE, S.A., priority 2008, published 2011).

Legend:
[1] = target: T1, CB1 receptors present in the CNS (Mus musculus, UniProt P47746); assay: Reversion of the analgesic effect of CP-55,940 in tail flick test in mice; format: in vivo; details: for reversion of the analgesic effect of CP-55,940: CP-55,940 0.3 mg/kg subcutaneous, FIG. 5
T1 construct: from tissue; host or cells: live CD1 mouse, central nervous system
Protocol: (§1) Male CD1 mice (Charles River Laboratories), weighting 30 to 40 g (7-8 weeks old) and Male Wistar rats (Charles River Laboratories), weighting 260-300 g (7-8 weeks old) at the time of experiment, were housed in a controlled environment. Temperature was maintained at 22±2° C. on a 12-h light/dark cycle (On at 07:00 h and Off at 19:00 h) and food and water were available ad libitum. The experiments were performed during the light phase. The number of mice ranged from 4 to 15 per group in each individual experiment. Animals were always handled in accordance with ethical principles for the evaluation of pain in conscious animals (Zimmerman, 1983) and with the European Communities Council Directive of 24 November 1986 (86/609/ECC), and received approval by the local Ethical Committee.
CP-55,940 (Ref. 0949, Tocris; Wiley et al., 1995) was administrated by subcutaneous route at 0.3 mg/kg in a volume of 5 ml/kg in mice and by intraperitoneal route at 0.5 mg/kg in a volume of 2 ml/kg in rat. NESS-0327 (Ruiu et al., 2003) was administrated by intraperitoneal route at 0.3 mg/kg and 1 mg/kg in a volume of 10 ml/kg in mice. […] All compounds were dissolved using HPMC (Hydroxypropyl methyl cellulose) which was prepared at a concentration of 0.5% in Milli-Q water.
The tail flick test was used to evaluate the antinociceptive effect of compounds. The test was performed as previously described (Moncada et al., 2003 and Robles et al., 1996). A noxious beam of light was focused on the mice tail about 4 cm from its tip, and the tail flick latency was recorded automatically to the nearest 0.1 s. The intensity of the radiant heat source was adjusted to produce latencies between 3-5 sec in vehicle treated mice and 2-4 sec in vehicle treated rats. In order to minimize cutaneous injuries a cut-off time of 10 s was used.
Mice were tested 60 min after subcutaneous administration of CP-55,940 (0.3 mg/kg) or vehicle (HPMC 0.5%).
Data are presented as tail flick latency responses in sec ±S.E.M and as percentage of analgesia ±S.E.M. The values in the control group were compared against those obtained in the treated groups. Statistical analysis to test intergroup comparisons was made using an initial one-way analysis of variant followed by the Newman-Keuls multiple comparison test. The level of significance was set at p<0.05.

Human CB1 receptor [2] = target: T2, Human CB1 receptor (Homo sapiens, UniProt P21554); assay: In-vitro determination of functional activity to human CB1-receptors ([35S]GTPγS binding in presence of Win 55,212-2, CHO-CB1 membranes); format: biochemical; set-up: expressed in transfected cells; host or cells: CHO cells, stably transfected, membranes; details: for functional behaviour at CB1 receptor (inverse agonist or neutral antagonist): [35S]GTPγS binding relative to basal levels, FIG. 1
Protocol: The binding of [^35S]GTPγS was carried out using a modification of previously published methods Meschler, J. P., Kraichely, D. M., Wilken, G. M AND Howlet, A. C. […] Eur. J. Pharm. Sci. 2004, 23 (3): 233-43.
Human CB1 membranes were prepared from stably transfected CHO cells. Incubation mixtures consisted of CHO-CB1 membrane preparation at a final concentration of 15 μg of protein, compound (dose-response curve between 3 nM and 3 μM, final well concentration), Win 55,212-2 (0.3 μM final well concentration) and binding buffer (50 mM HEPES, pH 7.4, 100 mM KCl, 5 mM MgCl2, 1 mM EDTA, 0.1% wt/vol bovine serum albumin, 5 μM GDP, saponin 10 μg/ml). Subsequently [^35S]GTPγS (0.25 nM) was added, samples were incubated for 60 minutes at 30° C. and finally filtered. Radioactivity on filters was measured with Wallac Microbeta Trilux. Data analysis was performed by using Graph Pad Prism version 3.03 for windows. The bottom plateau of the analyzed sigmoid curves is considered the Emin (Minimal efficacy) value and values of Emin<0 represents inverse agonism of the compounds.

[3] = Selectivity for 170 targets
[4] = target: T3, CB1 receptors present in the CNS (Rattus norvegicus, UniProt P20272); assay: Reversion of the analgesic effect of CP-55,940 in tail flick test in rat; format: in vivo; details: 10 mg/kg oral
T3 construct: from tissue; host or cells: live Wistar rat, central nervous system
Protocol: as §1
CP-55,940 (Ref. 0949, Tocris; Wiley et al., 1995) was administrated by subcutaneous route at 0.3 mg/kg in a volume of 5 ml/kg in mice and by intraperitoneal route at 0.5 mg/kg in a volume of 2 ml/kg in rat. NESS-0327 (Ruiu et al., 2003) was administrated by intraperitoneal route at 0.3 mg/kg and 1 mg/kg in a volume of 10 ml/kg in mice. […]
The tail flick test was used to evaluate the antinociceptive effect of compounds. […] A noxious beam of light was focused on the mice tail about 4 cm from its tip, and the tail flick latency was recorded automatically to the nearest 0.1 s. […]

Human CB1 receptor [5] = target: T2, Human CB1 receptor; assay: In-vitro determination of affinity to human CB1-receptors ([3H] (+)-CP55,940 radioligand binding, HEK-293 membranes); set-up: expressed in transfected cells; details: [3H] (+)-CP55,940 0.45 nM
Protocol: Binding affinity for CB1 receptor was evaluated according to a modification of the Govaerts S J, Hermans E and Lambert D M. “Comparison of cannabinoid ligand affinities and efficacies in murine tissues and in transfected cells expressing human recombinant cannabinoid receptors”. Eur. J. Pharm. Sci. 2004, 23 (3): 233-43 described method. Human CB1 receptor was transfected into HEK-293 cells and a stable clone obtained and membranes prepared from this clone was used as the membrane source for radioligand binding studies. [3H] (+)-CP55,940 was used as radioligand at a final concentration of 0.45 nM. The incubation buffer was Tris-HCl 50 mM, MgCl2 5 mM, EDTA 1 mM, BSA 0.5%, pH 7.4 and the non-specific binding was determined with 10 μM of HU210. Samples were incubated at 37° C. for 60 min before filtration. Radioactivity on filters was measured with Wallac Winspectral 1414 counter by liquid scintillation in Ecoscint H (National Diagnostics, U.K.).

[6] = target: T4, cannabinoid CB1 receptors present in the central nervous system (Rattus norvegicus, UniProt P20272); assay: Prevention of hypothermia produced by CP55,940 in rat; format: in vivo; details: CP55,940 0.3 mg/kg ip, FIG. 4
T4 construct: from tissue; host or cells: live Wistar rat, central nervous system
Protocol: Male Wistar rats (220-270 g) were used. Rats were fed ad libitum with pellet standard rodent chow. Animals were maintained on a 12/12 hour light-dark cycle. They were randomized into groups for compound and vehicle dosing. Animals were first dosed, p.o., with vehicle (saline +1 drop of tween) or with the (4S,5S)-5-(4-chlorophenyl)-1-(2,4-dichlorophenyl)-N-(cis-2,6-dimethylpiperidin-1-yl)-4-methyl-4,5-dihydro-1H-pyrazole-3-carboxamide enantiomer (10 or 30 mg/kg) 60 minutes prior to the second administration, i.p., with vehicle or CP 55,940 (0.3 mg/kg). Body temperature was measured using a rectal probe connected to a thermometer (CIBERTEC). Measurements were performed at T=−60, 0, 60, 120 and 240 minutes following CP55,940 administration. CP,55,940 was administered just after the measurement of Body temperature at T=0.
Data were analyzed by a two-way (treatment, time) analysis of variance (ANOVA) with repeated measure on the time factor. A covariate was included to adjust for differences between treatment groups at baseline (Time 0). Comparisons between average treatment profiles were performed by defining appropriate tests for contrasts within the ANOVA analysis. A value of P<0.05 was considered significant. Data analysis was carried out with the SAS/STAT® release 9.1 statistical package (SAS Institute Inc., Cary, N.C.).

T2 sequence (P21554 whole entry): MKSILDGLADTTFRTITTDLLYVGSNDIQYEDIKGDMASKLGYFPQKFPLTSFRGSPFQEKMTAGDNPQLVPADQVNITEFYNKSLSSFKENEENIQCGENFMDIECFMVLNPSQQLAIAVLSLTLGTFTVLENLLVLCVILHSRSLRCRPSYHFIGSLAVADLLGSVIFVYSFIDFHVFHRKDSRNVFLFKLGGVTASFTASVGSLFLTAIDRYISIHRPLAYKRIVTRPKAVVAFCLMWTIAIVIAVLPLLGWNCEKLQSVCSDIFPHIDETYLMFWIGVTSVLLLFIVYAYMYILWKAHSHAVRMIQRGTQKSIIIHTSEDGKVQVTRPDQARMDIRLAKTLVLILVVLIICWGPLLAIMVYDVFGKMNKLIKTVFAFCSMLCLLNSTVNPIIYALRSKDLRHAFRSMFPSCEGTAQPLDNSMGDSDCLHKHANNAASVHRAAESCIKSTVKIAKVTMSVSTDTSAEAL
T1 sequence (P47746 whole entry): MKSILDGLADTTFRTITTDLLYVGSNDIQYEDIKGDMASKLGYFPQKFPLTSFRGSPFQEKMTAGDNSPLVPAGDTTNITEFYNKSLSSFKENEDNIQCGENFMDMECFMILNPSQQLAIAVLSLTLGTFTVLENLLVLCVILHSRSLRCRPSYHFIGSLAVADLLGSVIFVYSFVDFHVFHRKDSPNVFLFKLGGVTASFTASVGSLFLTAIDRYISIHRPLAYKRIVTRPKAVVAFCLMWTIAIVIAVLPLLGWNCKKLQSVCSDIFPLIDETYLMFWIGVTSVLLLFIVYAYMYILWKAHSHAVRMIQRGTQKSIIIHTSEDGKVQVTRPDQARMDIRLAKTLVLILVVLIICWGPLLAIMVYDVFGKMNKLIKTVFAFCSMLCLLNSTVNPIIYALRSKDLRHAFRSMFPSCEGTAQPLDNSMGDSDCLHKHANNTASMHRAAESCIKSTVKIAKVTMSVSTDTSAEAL
T4 sequence (P20272 whole entry): as the sequence (P47746 whole entry) above, with D95E counted along it
T3 sequence (P20272 whole entry): as the sequence (P47746 whole entry) above, with D95E counted along it

| SMILES | reversion of the analgesic effect of CP-55,940 ([1]; 0.3 mg/kg intraperitoneal) | effect by itself in tail flick test ([1]; 0.3 mg/kg intraperitoneal, without CP-55,940) | reversion of the analgesic effect of CP-55,940 ([1]; 1 mg/kg intraperitoneal) | effect by itself in tail flick test ([1]; 1 mg/kg intraperitoneal, without CP-55,940) | functional behaviour at CB1 receptor (inverse agonist or neutral antagonist) (Human CB1 receptor [2]) | functional behaviour at CB1 receptor (inverse agonist or neutral antagonist) (Human CB1 receptor [2]; listed as racemate compound) | selective for 170 targets [3] | functional behaviour at CB1 receptor (inverse agonist or neutral antagonist) (Human CB1 receptor [2]; listed as (4S,5S) compound) | Emin (Minimal efficacy) (Human CB1 receptor [2]; [35S]GTPγS binding, Win 55,212-2 0.3 μM, Emin<0 represents inverse agonism) | IC50 (Human CB1 receptor [2]; [35S]GTPγS binding, Win 55,212-2 0.3 μM, read-out: pIC50 (potency) (converted)) | effect by itself in tail flick test ([4]; without CP-55,940) | effect by itself in tail flick test ([4]; without CP-55,940, listed as (4S,5S)-enantiomer) | Ki (Human CB1 receptor [5]) | effect by itself in tail flick test ([1]; 5 mg/kg intraperitoneal, without CP-55,940) | effect by itself in tail flick test ([1]; 5 mg/kg intraperitoneal, without CP-55,940, listed as (4S,5S)-enantiomer) | prevention of the hypothermia produced by CP55,940 ([6]; 10 mg/Kg p.o.) | prevention of the hypothermia produced by CP55,940 ([6]; 30 mg/Kg p.o.) |
| --- | --- | --- | --- | --- | --- | --- | --- | --- | --- | --- | --- | --- | --- | --- | --- | --- | --- |
| O=C(NN1CCCCC1)c1nn(-c2ccc(Cl)cc2Cl)c2c1CCCc1cc(Cl)ccc1-2 [NESS-0327] | not at 0.3 mg/kg | Neither NESS-0327 (0.3 mg/kg) nor (1 mg/kg) showed an effect by themselves | significantly inhibited | Neither NESS-0327 (0.3 mg/kg) nor (1 mg/kg) showed an effect by themselves |  |  |  |  |  |  |  |  |  |  |  |  |  |
| CC1CCCC(C)N1NC(=O)C1=NN(c2ccc(Cl)cc2Cl)[C@H](c2ccc(Cl)cc2)[C@@H]1C (mixture of isomers) [racemate cis-compound, cis-5-(4-chlorophenyl)-1-(2,4-dichlorophenyl)-N-(2,6-dimethylpiperidin-1-yl)-4-methyl-4,5-dihydro-1H-pyrazole-3-carboxamide, reference compound] |  |  |  |  | behave as inverse agonists | CB1 inverse agonism |  |  |  |  |  |  |  |  |  |  |  |
| C[C@@H]1C(C(=O)NN2[C@H](C)CCC[C@@H]2C)=NN(c2ccc(Cl)cc2Cl)[C@@H]1c1ccc(Cl)cc1 [(4S,5S)-5-(4-chlorophenyl)-1-(2,4-dichlorophenyl)-N-(cis-2,6-dimethylpiperidin-1-yl)-4-methyl-4,5-dihydro-1H-pyrazole-3-carboxamide] |  |  |  |  | neutral antagonist |  | 99% | behaves as a neutral antagonist | −1±8 | 30.2 nM | Neither Rimonabant (10 mg/kg) nor the ((4S,5S)-5-(4-chlorophenyl)-1-(2,4-dichlorophenyl)-N-(cis-2,6-dimethylpiperidin-1-yl)-4-methyl-4,5-dihydro-1H-pyrazole-3-carboxamide enantiomer (10 mg/kg) showed an effect by themselves | Neither Rimonabant (10 mg/kg) nor (4S,5S)-enantiomer (10 mg/kg) showed an effect by themselves | 27 ± 10 nM | Neither Rimonabant (5 mg/kg) nor the (4S,5S)-5-(4-chlorophenyl)-1-(2,4-dichlorophenyl)-N-(cis-2,6-dimethylpiperidin-1-yl)-4-methyl-4,5-dihydro-1H-pyrazole-3-carboxamide enantiomer (5 mg/kg) showed an effect by themselves | Neither Rimonabant (5 mg/kg) nor the(4S,5S)-enantiomer (5 mg/kg) showed an effect by themselves | does not significantly prevent | does not significantly prevent |
